# Source: article PMC7822176, “Pursuing the Complexity of Alzheimer’s Disease: Discovery of Fluoren-9-Amines as Selective Butyrylcholinesterase Inhibitors and N-Methyl-D-Aspartate Receptor Antagonists” (Biomolecules, 2020)
# Like-named read-outs stand apart in the source and are kept apart here.
# Experiments:
# [1] = biological target: T1, hBChE (Homo sapiens, UniProt P06276); test: biochemical; assay type: biochemical; conditions: for IC50: mean of at least three experiments, read-out: IC50 ± SEM hBChE
# T1 construct: made in house
# T1 sequence (P06276 29-602): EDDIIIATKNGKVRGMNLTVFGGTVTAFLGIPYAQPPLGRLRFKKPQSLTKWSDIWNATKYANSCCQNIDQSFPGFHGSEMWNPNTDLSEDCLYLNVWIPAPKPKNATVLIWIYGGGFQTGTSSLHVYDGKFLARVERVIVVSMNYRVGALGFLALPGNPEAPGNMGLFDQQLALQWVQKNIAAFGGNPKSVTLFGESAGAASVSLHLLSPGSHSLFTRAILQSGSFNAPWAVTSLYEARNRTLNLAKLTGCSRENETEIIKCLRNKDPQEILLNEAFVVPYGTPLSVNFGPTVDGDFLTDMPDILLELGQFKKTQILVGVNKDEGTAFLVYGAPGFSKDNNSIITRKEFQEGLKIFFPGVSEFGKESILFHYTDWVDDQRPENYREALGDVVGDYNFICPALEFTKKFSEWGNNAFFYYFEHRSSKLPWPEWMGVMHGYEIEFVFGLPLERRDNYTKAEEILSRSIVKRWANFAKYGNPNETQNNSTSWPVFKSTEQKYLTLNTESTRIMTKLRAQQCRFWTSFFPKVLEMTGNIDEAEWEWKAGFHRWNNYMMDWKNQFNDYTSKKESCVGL
# Procedure: The human recombinant BChE and AChE were prepared at the Department of Toxicology and Military Pharmacy (Faculty of Military Health Sciences, Hradec Kralove, Czech Republic). 5,5′-dithiobis(2-nitrobenzoic acid) (Ellman’s reagent, DTNB), phosphate buffer (PB, pH 7.4), acetylthiocholine (ATC), and butyrylthiocholine (BTC) were purchased from Sigma-Aldrich, Prague, Czech Republic. For measuring purposes, polystyrene Nunc 96-well microplates with a flat bottom shape (Thermo Fisher Scientific, Waltham, MA, USA) were utilized. All the assays were carried out in 0.1-M KH2PO4/K2HPO4 buffer, pH 7.4. Enzyme solutions were prepared at 2.0 units/mL in 2-mL aliquots. […] Tested compounds were preincubated for 5 min. The reaction was started by the immediate addition of 20 µL of the substrate. […] Each concentration was assayed in triplicate. Software GraphPad Prism 5 (San Diego, CA, USA) was used for the statistical data evaluation.
# [2] = biological target: T1, hBChE; test: Kinetic study of hBChE inhibition; assay type: biochemical
# Procedure: The kinetic study of hBChE was performed by using the above-mentioned modified Ellman’s method. The values of Vmax and Km of the Michaelis-Menten kinetics, as well as the value of Ki, were calculated by nonlinear regression from the substrate velocity curves. Linear regression was used for calculation of the Cornish-Bowden plots. All calculations were performed using GraphPad Prism software version 6.07 for Windows (San Diego, CA, USA).
# [3] = MTT cell viability test, hCMEC/D3; assay type: cell-based; conditions: human, read-out: % viable cells hCMEC/D3
# Procedure: Standard MTT assay (3-(4,5-dimethylthiazol-2-yl)-2,5-diphenyltetrazolium bromide; Sigma Aldrich, Prague, Czech Republic) was used according to the manufacturer’s protocols on the CHO-K1 (Chinese hamster ovary, ECACC, Salisbury, UK) and hCMEC/D3 (Sigma Aldrich, St. Louis, MO, USA). The cells were cultured according to recommended conditions and seeded in a density of 8000 cells per well, as described previously. […] CHO-K1 cells were exposed to serially diluted tested compounds for 24 h. Then, the medium was replaced by a fresh medium containing 0.5 mg/mL of MTT, and the cells were allowed to produce formazan for another approximately 3 h under surveillance. Thereafter, the medium with MTT was removed, and crystals of formazan were dissolved in DMSO (100 µL/well; PENTA s.r.o., Prague, Czech Republic). Cell viability was assessed spectrophotometrically by the amount of formazan produced. The absorbance was measured at 570 nm with a 650-nm reference wavelength on Synergy HT (BioTek, Winooski, VT, USA). […] Final IC50 and SEM (standard error of the mean) values were obtained as a mean of three independent measurements.
# [4] = biological target: T2, GluN1/GluN2A receptors (Homo sapiens, UniProt Q05586+Q12879); test: cell-based; conditions: for inhibition at 10 µM: HEK293, read-out: RI (%) ± SEM GluN1/GluN2A
# T2 construct: expressed in transfected cells; host or cells: HEK293
# T2 sequence (Q12879 23-1464, other chains not shown): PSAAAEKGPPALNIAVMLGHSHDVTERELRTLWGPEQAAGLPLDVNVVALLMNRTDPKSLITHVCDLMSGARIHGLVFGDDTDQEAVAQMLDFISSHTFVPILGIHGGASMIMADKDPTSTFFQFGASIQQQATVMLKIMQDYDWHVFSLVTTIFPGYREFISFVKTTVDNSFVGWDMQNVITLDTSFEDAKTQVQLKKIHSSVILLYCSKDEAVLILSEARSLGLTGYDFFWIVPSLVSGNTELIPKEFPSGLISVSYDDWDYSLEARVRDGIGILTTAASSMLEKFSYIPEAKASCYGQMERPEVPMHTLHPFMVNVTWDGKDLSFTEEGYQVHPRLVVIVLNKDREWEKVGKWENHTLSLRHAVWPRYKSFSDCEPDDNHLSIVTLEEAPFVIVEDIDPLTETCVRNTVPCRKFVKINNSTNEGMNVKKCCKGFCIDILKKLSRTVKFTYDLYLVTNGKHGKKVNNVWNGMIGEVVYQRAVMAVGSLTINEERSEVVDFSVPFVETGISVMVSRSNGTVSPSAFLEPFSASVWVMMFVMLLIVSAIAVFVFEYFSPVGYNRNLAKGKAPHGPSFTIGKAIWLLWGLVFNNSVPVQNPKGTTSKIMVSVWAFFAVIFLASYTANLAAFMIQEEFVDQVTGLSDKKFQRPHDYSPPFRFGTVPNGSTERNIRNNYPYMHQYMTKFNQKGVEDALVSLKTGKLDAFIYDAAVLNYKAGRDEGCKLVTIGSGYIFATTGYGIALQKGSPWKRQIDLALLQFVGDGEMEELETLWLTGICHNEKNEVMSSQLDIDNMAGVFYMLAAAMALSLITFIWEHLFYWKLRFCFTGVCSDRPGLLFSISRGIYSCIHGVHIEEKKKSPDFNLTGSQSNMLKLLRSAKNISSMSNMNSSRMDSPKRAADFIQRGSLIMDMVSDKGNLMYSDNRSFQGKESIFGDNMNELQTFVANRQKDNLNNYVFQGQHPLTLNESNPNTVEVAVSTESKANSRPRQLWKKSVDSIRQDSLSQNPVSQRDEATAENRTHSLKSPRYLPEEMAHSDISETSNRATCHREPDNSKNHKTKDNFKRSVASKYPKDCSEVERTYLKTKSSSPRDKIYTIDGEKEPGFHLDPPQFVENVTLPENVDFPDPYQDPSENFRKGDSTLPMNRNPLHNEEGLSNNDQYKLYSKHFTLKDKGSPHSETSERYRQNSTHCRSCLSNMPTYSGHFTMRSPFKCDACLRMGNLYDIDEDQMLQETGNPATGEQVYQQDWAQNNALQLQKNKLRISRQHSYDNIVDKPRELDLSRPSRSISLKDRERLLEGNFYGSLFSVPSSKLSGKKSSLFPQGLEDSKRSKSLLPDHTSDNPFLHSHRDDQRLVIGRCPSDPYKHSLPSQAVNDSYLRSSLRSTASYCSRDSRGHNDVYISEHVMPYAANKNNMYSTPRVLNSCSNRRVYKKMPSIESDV
# Procedure: (§1) The cells grown in a 24-well plate were put in Opti-MEM I media containing a mixture of 0.9 µL of MATra-A Reagent (IBA) and 900 ng of DNA vectors carrying the human versions of the GluN1-1a (GluN1), GluN2A, or GluN2B subunits and green fluorescent protein (GFP; all vectors were added in equal ratio). The cells were placed on a strong magnet plate for 30 min and then trypsinized; resuspended in Opti-MEM I containing 1% FBS, 20-mM MgCl2, and 3-mM kynurenic acid (to inhibit the NMDAR-induced excitotoxicity); and plated on poly-L-lysine-coated glass coverslips. The electrophysiological experiments were executed 24–48 h after transfection.
# (§2) Whole-cell patch-clamp recordings were conducted at room temperature on the GFP-positive HEK293 cells using an Axopatch 200B amplifier (Molecular Devices, San Jose, CA, USA); the series resistance compensation was >80% for all cells. […] The WAS02 application system, which can reach the solution exchange time around the recorded cell of 10–20 ms, was used to apply the extracellular solution (ECS).
# [5] = biological target: T3, GluN1/GluN2B receptors (Homo sapiens, UniProt Q05586+Q13224); test: cell-based; conditions: for inhibition at 10 µM: HEK293, read-out: RI (%) ± SEM GluN1/GluN2B
# T3 construct: expressed in transfected cells; host or cells: HEK293
# T3 sequence (Q13224 27-1484, other chains not shown): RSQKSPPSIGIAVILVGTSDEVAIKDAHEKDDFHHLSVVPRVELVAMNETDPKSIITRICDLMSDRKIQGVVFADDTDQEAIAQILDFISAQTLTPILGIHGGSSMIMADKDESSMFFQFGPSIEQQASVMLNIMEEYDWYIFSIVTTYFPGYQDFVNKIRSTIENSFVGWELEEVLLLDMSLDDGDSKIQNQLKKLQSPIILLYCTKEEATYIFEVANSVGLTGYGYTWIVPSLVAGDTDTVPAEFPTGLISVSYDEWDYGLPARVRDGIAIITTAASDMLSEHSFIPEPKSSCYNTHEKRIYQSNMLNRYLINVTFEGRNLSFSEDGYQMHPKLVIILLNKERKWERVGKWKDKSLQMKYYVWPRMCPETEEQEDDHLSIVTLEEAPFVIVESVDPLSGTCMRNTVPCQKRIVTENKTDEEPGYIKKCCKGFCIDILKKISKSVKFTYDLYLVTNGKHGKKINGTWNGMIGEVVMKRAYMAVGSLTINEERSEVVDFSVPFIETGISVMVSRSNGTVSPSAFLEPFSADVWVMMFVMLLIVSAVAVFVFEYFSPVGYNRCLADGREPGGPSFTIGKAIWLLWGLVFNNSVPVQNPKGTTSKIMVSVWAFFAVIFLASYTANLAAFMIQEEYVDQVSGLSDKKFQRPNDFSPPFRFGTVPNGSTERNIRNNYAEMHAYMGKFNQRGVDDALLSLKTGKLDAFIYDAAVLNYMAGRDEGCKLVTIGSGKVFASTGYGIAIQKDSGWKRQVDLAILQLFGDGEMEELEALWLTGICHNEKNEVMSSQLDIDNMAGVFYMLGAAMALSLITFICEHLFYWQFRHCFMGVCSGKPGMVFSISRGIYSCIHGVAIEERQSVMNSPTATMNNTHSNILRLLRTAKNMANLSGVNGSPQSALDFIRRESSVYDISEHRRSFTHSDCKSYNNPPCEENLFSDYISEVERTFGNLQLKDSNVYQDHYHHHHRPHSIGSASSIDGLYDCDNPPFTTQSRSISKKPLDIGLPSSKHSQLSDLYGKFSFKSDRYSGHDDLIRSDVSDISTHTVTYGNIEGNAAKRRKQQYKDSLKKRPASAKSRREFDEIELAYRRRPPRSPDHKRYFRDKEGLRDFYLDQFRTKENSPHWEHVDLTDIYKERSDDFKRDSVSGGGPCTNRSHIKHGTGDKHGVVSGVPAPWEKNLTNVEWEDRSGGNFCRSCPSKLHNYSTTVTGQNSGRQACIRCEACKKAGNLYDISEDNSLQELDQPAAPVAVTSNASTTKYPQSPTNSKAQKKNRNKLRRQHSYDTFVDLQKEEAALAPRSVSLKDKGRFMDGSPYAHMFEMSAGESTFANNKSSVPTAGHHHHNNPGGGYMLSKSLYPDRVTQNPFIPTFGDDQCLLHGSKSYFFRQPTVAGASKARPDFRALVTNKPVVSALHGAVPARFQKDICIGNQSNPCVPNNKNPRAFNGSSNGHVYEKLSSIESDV
# Procedure: as §1, §2
# [6] = MTT cell viability assay, CHO-K1; assay type: cell-based; conditions: Chinese hamster, CHO-K1 cells, 24 h exposure, mean of three independent measurements, read-out: IC50 ± SEM CHO-K1 cell viability
# Procedure: Standard MTT assay (3-(4,5-dimethylthiazol-2-yl)-2,5-diphenyltetrazolium bromide; Sigma Aldrich, Prague, Czech Republic) was used according to the manufacturer’s protocols on the CHO-K1 (Chinese hamster ovary, ECACC, Salisbury, UK) and hCMEC/D3 (Sigma Aldrich, St. Louis, MO, USA). The cells were cultured according to recommended conditions and seeded in a density of 8000 cells per well, as described previously. […] CHO-K1 cells were exposed to serially diluted tested compounds for 24 h. Then, the medium was replaced by a fresh medium containing 0.5 mg/mL of MTT, and the cells were allowed to produce formazan for another approximately 3 h under surveillance. Thereafter, the medium with MTT was removed, and crystals of formazan were dissolved in DMSO (100 µL/well; PENTA s.r.o., Prague, Czech Republic). Cell viability was assessed spectrophotometrically by the amount of formazan produced. The absorbance was measured at 570 nm with a 650-nm reference wavelength on Synergy HT (BioTek, Winooski, VT, USA). The IC50 value (half-maximal inhibitory concentration) was calculated from the control-subtracted triplicates using nonlinear regression (four parameters) by GraphPad Prism 7.03 software (GraphPad Software Inc., San Diego, CA, USA) for the CHO-K1 cell line, and for hCMEC/D3 cells, the cell viability was expressed as the % relative to the untreated control. Final IC50 and SEM (standard error of the mean) values were obtained as a mean of three independent measurements.
# [7] = system: hCMEC/D3 cell monolayer; test: in vitro; conditions: for potential of BBB permeation (in words): Papp correlated to reference drugs
# Procedure: (§3) The D3 assay evaluates the ability of compounds to diffuse from the donor compartment through the D3/hCMEC cell membrane into the acceptor compartment. The D3 cells were seeded on a PET membrane (area 1.12 cm^2) with 3-µm pores of the 12-well plates with 12-mm inserts. […] The donor solution (750 µL) was added to the donor compartment (insert), and the same volume of Opti-MEM was added into the acceptor. The concentration of the drug in both compartments was measured by UV-VIS spectrophotometry in 5, 15, 30, and 60 min of incubation in triplicates. The apparent permeability coefficient (Papp) was calculated from the concentration ratios. Tightness of the D3 monolayer was conducted by the fluorescein isothiocyanate (FITC) test after each experiment. […] (1) Papp= dC/dt × Vr/A × C0 • A: area of the well/cell monolayer, • dC/dt: amount in the receiver compartment in given time, • Vr: volume of the receiver compartment, and • C0: the initial concentration of tested compounds.
# [8] = in vitro; conditions: human
# Procedure: as §3
# [9] = biological target: NMDA receptor; conditions: read-out: IC50 inhibition of NMDA receptor responses; at −60 mV; cited from earlier work
# [10] = final prediction from Papp correlated to reference drugs
SMILES,IC50 [1] [µM],viability at 50 µM ([3]; hCMEC/D3 cells) [%],viability at 100 µM ([3]; hCMEC/D3 cells) [%],inhibition at 10 µM [4] [%],inhibition at 10 µM [5] [%],IC50 at 24 h [6] [µM],potential of BBB permeation (in words) [7],"CNS (+/−) [7, 10]",Papp [8] [×10⁻⁶ cm/s],further results
"Cl.c1ccc2c(c1)-c1ccccc1C2NC1CCCCC1 [Compound 3c, N-Cyclohexyl-9H-fluoren-9-amine hydrochloride]",0.47 ± 0.01,93.4,82.9,41 ± 3.56,17.2 ± 2.39,111 ± 10,low potential to passively pass the BBB,CNS −,12.3 ± 2.33,"times less active compared to THA (hBChE inhibition) [1]: 20; Ki ([2]; nonlinear regression, substrate butyrylthiocholine): 0.173 ± 0.025 µM; type of inhibition ([2]; sum-of-squares F-test, Cornish–Bowden plot): competitive inhibition"
"CCCCNC1c2ccccc2-c2ccccc21.Cl [Compound 3m, N-Butyl-9H-fluoren-9-amine hydrochloride]",1.02 ± 0.03,82.1,80.1,36.2 ± 3.73,51.2 ± 3.24,140 ± 15,corresponds to those of standard drugs with high CNS permeability,CNS +,18.5 ± 2.37,"h 40 mV GluN1/GluN2A (Hill coefficient) ([4]; 40 mV): 1.23 ± 0.13; IC50 ([4]; 40 mV, read-out: IC50 40 mV GluN1/GluN2A): 114 ± 26.6 µM; h −60 mV GluN1/GluN2A (Hill coefficient) ([4]; −60 mV): 1.19 ± 0.14; IC50 ([4]; −60 mV, read-out: IC50 −60 mV GluN1/GluN2A): 14.2 ± 1.6 µM; h 40 mV GluN1/GluN2B (Hill coefficient) ([5]; 40 mV): 0.97 ± 0.10; IC50 ([5]; 40 mV, read-out: IC50 40 mV GluN1/GluN2B): 221 ± 12.2 µM; h −60 mV GluN1/GluN2B (Hill coefficient) ([5]; −60 mV): 1.12 ± 0.05; IC50 ([5]; −60 mV, read-out: IC50 −60 mV GluN1/GluN2B): 11.7 ± 1.72 µM"
"Nc1c2c(nc3ccccc13)CCCC2 [THA, Tacrine, reference compound]",,,,,,,,,22.3 ± 2.01,IC50 [9]: 20 µM; viability at 50 µM [3]: 91.1%; viability at 100 µM [3]: 94.5%; CNS (+/−) [7]: CNS +
